Results published in US11357779B2 (G1 Therapeutics, Inc., priority 2018, dated 2022).
“Also recorded” adds a separate entry of the source. Read-outs that look alike come from different tables or passages of the source.

Legend:
[1] = Apparent volume of distribution (Vd/F); format: in vivo; conditions: human, plasma, oral; 200 mg QD of compound II
Protocol: “Vd/F” (Liters) as used herein means the theoretical volume that would be necessary to contain the total amount of an administered drug at the same concentration that it is observed in the blood plasma. It is generally defined as the distribution of a medication between plasma and the rest of the body after oral or parenteral dosing. “Vd/F” as used herein is calculated by using the terminal elimination rate constant, which is derived mathematically from the concentration vs time curve to extrapolate a value of plasma concentration at time zero. Volume of distribution for oral drugs is normally expressed as Vd/F or Vz/F. The skilled artisan is familiar with calculating Vd/F or Vz/F.
The apparent volume of distribution (Vd/F) was calculated from the terminal rate constant (ke) derived from the plasma concentration-versus-time data provided for Compound I in Example 1 when dosed with 200 mg QD of Form B of Compound II.

[2] = human, in vivo
Protocol: Absolute neutrophil count (ANC) was determined from the blood sample obtained from subjects described in Example 1 on day 22 using standard methods.
Absolute neutrophil count (ANC) was also determined for blood samples obtained from subjects in all dosing cohorts (200 mg QD, 300 mg QD, 400 mg QD, 500 mg QD, 100 mg BID, and 150 mg BID dosage of Form B of Compound II).

[3] = test system: BT474 tumor; experiment: Murine HER2+ ER+ CBX model, tumor growth and survival; format: in vivo; conditions: BT474 tumor-containing mice; Compound I 50 mg/kg by mouth once a day for 56 days
Protocol: Mice containing a BT474 tumor were treated with vehicle, Compound I (50 mg/kg by mouth once a day for 56 days), lapatinib+trastuzumab, or Compound I+lapatinib+trastuzumab.

[4] = Dynamic vapor sorption (moisture sorption) experiment; conditions: for stability in the moisture sorption experiment (XRPD of dried sample): after DVS
Protocol: Dynamic vapor sorption experiments were performed on Form A, Form B, and Form D. Table 103 provides the results of the DVS experiment.

[5] = TG and TG-IR analysis of Form B; format: physicochemical
Protocol: The TG analyses were performed using a TA Instrument Q5000 thermogravimetric analyzer. Temperature calibration was performed using nickel and Alumel. The sample was placed in a platinum pan and inserted into the TG furnace. The furnace was heated under a nitrogen purge to 350° C. at a rate of 10° C./min.
Thermogravimetric infrared (TG-IR) analysis was performed on a TA Instruments Q5000 IR thermogravimetric (TG) analyzer interfaced to a Magna-IR 560@ Fourier transform infrared (FT-IR) spectrophotometer (Thermo Nicolet) equipped with an Ever-Glo mid/far IR source, a potassium bromide (KBr) beamsplitter, and a mercury cadmium telluride (MCT-A) detector. The FT-IR wavelength verification was performed using polystyrene, and the TG calibration standards were nickel and Alumel™. The sample was placed in a platinum sample pan and the pan was inserted into the TG furnace. The TG instrument was started first, immediately followed by the FT-IR instrument. The TG instrument was operated under a flow of helium at 90 and 10 cc/minute for the purge and balance, respectively. The furnace was heated under helium at a rate of 20° C./minute to a final temperature of approximately 140° C. IR spectra were collected approximately every 32 seconds for approximately 7.5 minutes. Each IR spectrum represents 32 co-added scans collected at a spectral resolution of 4 cm-1. Volatiles were identified from a search of the High Resolution Nicolet Vapor Phase spectral library.
A TG-IR experiment was carried out on pure Form B (Sample 11 from the small-scale slurry experiments) at […] in an effort to investigate the stability of Form B at elevated temperature by monitoring potential release of hydrogen chloride.

[6] = test system: HR+, HER2− locally advanced or metastatic breast cancer; experiment: Clinical efficacy of Form B of Compound II plus fulvestrant, RECIST Version 1.1; format: in vivo, human; conditions: FIG. 3, FIG. 4; with fulvestrant
Protocol: Target lesions in subjects from Example 1 were evaluated every 8 weeks using the RECIST, Version 1.1 criteria (Eisenhower 2009) as follows: • Complete Response (CR): Disappearance of all target lesions. Any pathological lymph nodes (whether target or nontarget) must have reduction in short axis to <10 mm. • Partial Response (PR): At least a 30% decrease in the sum of diameters of target lesions, taking as reference the baseline sum of diameters. • Progressive Disease (PD): At least a 20% increase in the sum of diameters of target lesions, taking as reference the smallest sum on study (this includes the baseline sum if that is the smallest on study). […] A response category of not evaluable (NE) was used when there was inadequate information to otherwise categorize the response status. • Non-target lesions were evaluated using the following criteria: • Complete Response (CR): Disappearance of all nontarget lesions and normalization of tumor marker level. […]
The overall response (OR) was determined by evaluation of the combination of target and nontarget lesion responses as outlined in Table 94.
The clinical efficacy of the combination of Form B of Compound II and fulvestrant for QD dosing for the subjects from Example 1 was evaluated using the above criteria. […]

[7] = Stability study under thermal stress, 60° C. for 7 days; format: physicochemical
Protocol: Forms A, B, and D were stored in an oven maintained at 60° C. for 7 days.

| Compound | Vd/F [1] | (AUC0-24,ss)/ANC ([2]; 200 mg) | (AUC0-24,ss)/ANC ([2]; 300 mg) | (AUC0-24,ss)/ANC ([2]; 400 mg) | Median OS [3] | stability in the moisture sorption experiment (XRPD of dried sample) ([4]; dried at 60° C. and 0% RH) | TGA weight loss ([5]; at 26-120° C., 125 mg/mL Slurry, 30° C., 43 h VF, washed, Air-dried for 3.5 h) | TGA weight loss ([5]; at 26-120° C., Vacuum drying, 22° C., 0.5 h, 15 in Hg, 22° C. 1.5 h, 27-28 in Hg) | TGA weight loss ([5]; at 31-120° C., Vacuum drying, 22° C., 2.0 h, 27 in Hg) | moisture adsorbed ([4]; 60% RH) | moisture adsorbed ([4]; 90% RH) | % wt change at 60% RH ([4]; DVS, 60% RH) | % wt change at 90% RH ([4]; DVS, 90% RH) | XRPD (post DVS) ([4]; after moisture sorption experiment, dried at 60° C. and 0% RH) | anti-tumor activity (waterfall and spider plots, target lesions) [6] | XRPD pattern after thermal stress [7] |
| --- | --- | --- | --- | --- | --- | --- | --- | --- | --- | --- | --- | --- | --- | --- | --- | --- |
| CC(C)N1CCN(c2ccc(Nc3ncc4cc5n(c4n3)C3(CCCCC3)CNC5=O)nc2)CC1 [Compound I, 2′-((5-(4-isopropylpiperazin-1-yl)pyridin-2-yl)amino)-7′,8′-dihydro-6′H-spiro[cyclohexane-1,9′-pyrazino[1′,2′:1,5]pyrrolo[2,3-d]pyrimidin]-6′-one] | 15200 L | 0.10 | 0.47 | 0.15 | 25 days |  |  |  |  |  |  |  |  |  |  |  |
| CC(C)N1CCN(c2ccc(Nc3ncc4cc5n(c4n3)C3(CCCCC3)CNC5=O)nc2)CC1 [Compound II, 2′-((5-(4-isopropylpiperazin-1-yl)pyridin-2-yl)amino)-7′,8′-dihydro-6′H-spiro[cyclohexane-1,9′-pyrazino[1′,2′:1,5]pyrrolo[2,3-d]pyrimidin]-6′-one] |  |  |  |  |  | remained in Form B | 10% weight loss at 26- | 9.9% weight loss at 26- | 7.5% weight loss at 31- |  |  |  |  |  |  |  |
| CC(C)N1CCN(c2ccc(Nc3ncc4cc5n(c4n3)C3(CCCCC3)CNC5=O)nc2)CC1 [Form B] |  |  |  |  |  | stable |  |  |  | 5.8 wt % | 5.9 wt % | 5.8 % wt | 5.9 % wt | Form B | effective anti-tumor activity | stable; also recorded: No change in the XRPD pattern; also recorded: remained unchanged |
